Data from ChEMBL document CHEMBL1201862, “PubChem BioAssay data set” (2004).
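All cell lines were grown in 96-well plates and treated with compound for 48 hours. GI50 is the concentration that inhibits growth by half.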 The source made the active and inactive calls. No stated cut-off is given here; in the data, active = GI50 up to about 1.1 µM and inactive = higher.

Key:
Test in all cases: NCI-60 cell line screen, 48 h
K562 = test system: K562
SR = test system: SR
SK-MEL-28 = test system: SK-MEL-28
UO-31 = test system: UO-31
HOP-62 = test system: HOP-62
UACC-257 = test system: UACC-257
SK-MEL-2 = test system: SK-MEL-2
NCI-H522 = test system: NCI-H522
SNB-19 = test system: SNB-19
HT-29 = test system: HT-29
HOP-92 = test system: HOP-92
MOLT-4 = test system: MOLT-4
SW-620 = test system: SW-620
ACHN = test system: ACHN
Malme-3M = test system: Malme-3M
LOX IMVI = test system: LOX IMVI
SN12C = test system: SN12C
CAKI-1 = test system: CAKI-1
A549 = test system: A549
HCT-15 = test system: HCT-15
Hs-578T = test system: Hs-578T
T47D = test system: T47D
CCRF-CEM = test system: CCRF-CEM
COLO 205 = test system: COLO 205
SK-OV-3 = test system: SK-OV-3
MDA-MB-435 = test system: MDA-MB-435
PC-3 = test system: PC-3
KM12 = test system: KM12
NCI-H460 = test system: NCI-H460
786-0 = test system: 786-0
HCT-116 = test system: HCT-116
MDA-N = test system: MDA-N
OVCAR-5 = test system: OVCAR-5
HCC 2998 = test system: HCC 2998
U-251 = test system: U-251
HL-60 = test system: HL-60
OVCAR-4 = test system: OVCAR-4
NCI-H226 = test system: NCI-H226
SK-MEL-5 = test system: SK-MEL-5
NCI/ADR-RES = test system: NCI/ADR-RES
DU-145 = test system: DU-145
RXF 393 = test system: RXF 393
MCF7 = test system: MCF7
OVCAR-8 = test system: OVCAR-8
BT-549 = test system: BT-549
IGROV-1 = test system: IGROV-1
SF-268 = test system: SF-268
OVCAR-3 = test system: OVCAR-3
SF-539 = test system: SF-539
NCI-H23 = test system: NCI-H23
SNB-75 = test system: SNB-75
MDA-MB-231 = test system: MDA-MB-231
TK-10 = test system: TK-10
RPMI-8226 = test system: RPMI-8226
SF-295 = test system: SF-295
EKVX = test system: EKVX
M14 = test system: M14
UACC-62 = test system: UACC-62
A498 = test system: A498

SMILES: CCOc1nc2c(N3CCCC3)nc(N3CCNCC3)nc2nc1NCc1ccccc1
- GI50 (K562): 1200 nM (inactive)
- GI50 (SR): 1310 nM (inactive)
- GI50 (SK-MEL-28): 1790 nM (inactive)
- GI50 (UO-31): 1320 nM (inactive)
- GI50 (HOP-62): 1050 nM (active)
- GI50 (UACC-257): 1740 nM (inactive)
- GI50 (SK-MEL-2): 1660 nM (inactive)
- GI50 (NCI-H522): 820 nM (active)
- GI50 (SNB-19): 1510 nM (inactive)
- GI50 (HT-29): 830 nM (active)
- GI50 (HOP-92): 1130 nM (inactive)
- GI50 (MOLT-4): 1090 nM (active)
- GI50 (SW-620): 1730 nM (inactive)
- GI50 (ACHN): 1580 nM (inactive)
- GI50 (Malme-3M): 1890 nM (inactive)
- GI50 (LOX IMVI): 1360 nM (inactive)
- GI50 (SN12C): 1500 nM (inactive)
- GI50 (CAKI-1): 1850 nM (inactive)
- GI50 (A549): 1740 nM (inactive)
- GI50 (HCT-15): 1630 nM
- GI50 (Hs-578T): 1720 nM (inactive)
- GI50 (T47D): 1460 nM (inactive)
- GI50 (CCRF-CEM): 1260 nM (inactive)
- GI50 (COLO 205): 574 nM (active)
- GI50 (SK-OV-3): 1570 nM (inactive)
- GI50 (MDA-MB-435): 1340 nM (inactive)
- GI50 (PC-3): 1460 nM (inactive)
- GI50 (KM12): 1340 nM (inactive)
- GI50 (NCI-H460): 1410 nM (inactive)
- GI50 (786-0): 1390 nM (inactive)
- GI50 (HCT-116): 923 nM (active)
- GI50 (MDA-N): 1110 nM (active)
- GI50 (OVCAR-5): 4140 nM (inactive)
- GI50 (HCC 2998): 1340 nM (inactive)
- GI50 (U-251): 1170 nM (inactive)
- GI50 (HL-60): 1400 nM (inactive)
- GI50 (OVCAR-4): 2420 nM (inactive)
- GI50 (NCI-H226): 1650 nM (inactive)
- GI50 (SK-MEL-5): 1410 nM (inactive)
- GI50 (NCI/ADR-RES): 2770 nM (inactive)
- GI50 (DU-145): 944 nM (active)
- GI50 (RXF 393): 1030 nM (active)
- GI50 (MCF7): 1530 nM (inactive)
- GI50 (OVCAR-8): 1730 nM (inactive)
- GI50 (BT-549): 1610 nM (inactive)
- GI50 (IGROV-1): 1190 nM (inactive)
- GI50 (SF-268): 1560 nM (inactive)
- GI50 (OVCAR-3): 887 nM (active)
- GI50 (SF-539): 1520 nM (inactive)
- GI50 (NCI-H23): 1510 nM (inactive)
- GI50 (SNB-75): 975 nM (active)
- GI50 (MDA-MB-231): 1450 nM (inactive)
- GI50 (TK-10): 1900 nM (inactive)
- GI50 (RPMI-8226): 1390 nM (inactive)
- GI50 (SF-295): 1760 nM (inactive)
- GI50 (EKVX): 2100 nM (inactive)
- GI50 (M14): 1610 nM (inactive)
- GI50 (UACC-62): 1830 nM (inactive)

SMILES: CN(C)c1ccc(/C=C2\N=C(N/N=C/c3ccc(N(C)C)cc3)NC2=O)cc1
- GI50 (SK-MEL-28): > 100000 nM (inactive)
- GI50 (UO-31): > 100000 nM (inactive)
- GI50 (HOP-62): > 100000 nM (inactive)
- GI50 (UACC-257): > 100000 nM (inactive)
- GI50 (SK-MEL-2): > 100000 nM (inactive)
- GI50 (NCI-H522): 47900 nM (inactive)
- GI50 (SNB-19): > 100000 nM (inactive)
- GI50 (HT-29): 42700 nM (inactive)
- GI50 (HOP-92): 25500 nM (inactive)
- GI50 (MOLT-4): 92000 nM (inactive)
- GI50 (SW-620): > 100000 nM (inactive)
- GI50 (ACHN): > 100000 nM (inactive)
- GI50 (Malme-3M): > 100000 nM (inactive)
- GI50 (SN12C): > 100000 nM (inactive)
- GI50 (CAKI-1): > 100000 nM (inactive)
- GI50 (A549): 92500 nM (inactive)
- GI50 (HCT-15): 30800 nM
- GI50 (Hs-578T): > 100000 nM (inactive)
- GI50 (T47D): 16700 nM (inactive)
- GI50 (CCRF-CEM): 27500 nM (inactive)
- GI50 (COLO 205): 22800 nM (inactive)
- GI50 (SK-OV-3): > 100000 nM (inactive)
- GI50 (MDA-MB-435): > 100000 nM (inactive)
- GI50 (PC-3): > 100000 nM (inactive)
- GI50 (KM12): 61100 nM (inactive)
- GI50 (NCI-H460): 51500 nM (inactive)
- GI50 (786-0): > 100000 nM (inactive)
- GI50 (HCT-116): > 100000 nM (inactive)
- GI50 (MDA-N): > 100000 nM (inactive)
- GI50 (OVCAR-5): > 100000 nM (inactive)
- GI50 (HCC 2998): > 100000 nM (inactive)
- GI50 (U-251): 52100 nM (inactive)
- GI50 (HL-60): 29400 nM (inactive)
- GI50 (OVCAR-4): > 100000 nM (inactive)
- GI50 (NCI-H226): > 100000 nM (inactive)
- GI50 (SK-MEL-5): 44400 nM (inactive)
- GI50 (NCI/ADR-RES): > 100000 nM (inactive)
- GI50 (DU-145): 28100 nM (inactive)
- GI50 (RXF 393): 7600 nM (inactive)
- GI50 (MCF7): 71900 nM (inactive)
- GI50 (OVCAR-8): 24800 nM (inactive)
- GI50 (BT-549): > 100000 nM (inactive)
- GI50 (IGROV-1): 38700 nM (inactive)
- GI50 (SF-268): 80400 nM (inactive)
- GI50 (OVCAR-3): 50900 nM (inactive)
- GI50 (A498): 26800 nM (inactive)
- GI50 (NCI-H23): > 100000 nM (inactive)
- GI50 (SNB-75): > 100000 nM (inactive)
- GI50 (MDA-MB-231): 31400 nM (inactive)
- GI50 (TK-10): > 100000 nM (inactive)
- GI50 (RPMI-8226): 76600 nM (inactive)
- GI50 (SF-295): 58200 nM (inactive)
- GI50 (EKVX): > 100000 nM (inactive)
- GI50 (M14): 88700 nM (inactive)
- GI50 (UACC-62): > 100000 nM (inactive)
